Structures can show the parent of a compound that is named as a salt.
Key:
Rat white adipocytes = experiment: Stimulation of differentiation of the adipocytes (Oil Red O); assay type: cell-based; conditions: Rattus norvegicus, Adipocyte, 120 h, 100 nM test compound; 5 days; Oil Red O ABS550; control = 100%, blank = 0%; Table 7; read-out: Rate of Differentiation (%)
In short: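 Oil Red O lipid staining, absorbance 550 nm after DMSO extraction, quantified differentiation of rat white adipocytes exposed 5 days to compound (final 100 nM, 0.1% DMSO) in differentiation medium. Percent differentiation normalised between cell-free blank (0%) and DMSO control (100%).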

leptin production = experiment: Enhancing activity for leptin production in adipocytes (ELISA); assay type: cell-based, rat; conditions: leptin concentration as % of control group; for activity at 1 µM / activity at 0.1 µM / activity at 0.001 µM / activity at 0.01 µM: Rattus norvegicus, Adipocyte, 24 h, read-out: Facilitating activity to produce leptin; for activity at 0.001 µM: 1 nm; for Facilitating activity to produce leptin: 24 hr
In short: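 Leptin release, quantified by rat leptin ELISA, expressed as percent of 0.1% DMSO control after 24 h at 37 °C. Cells were floating adipocytes isolated by collagenase digestion of epididymal fat from male 6-week Wistar Imamichi rats; compound tested at 1 nM–1 µM final.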

Row | Compound | activity at 1 µM (leptin production; 1 μM) [%] | activity at 0.1 µM (leptin production; 100 nm) [%] | activity at 0.01 µM (leptin production; 10 nm) [%] | other results
1 | Cc1ccc(NC(=O)c2cc([N+](=O)[O-])ccc2Cl)cc1 [Example 1, N-(4-Methylphenyl)-(2-chloro-5-nitrophenyl)carboxamide] |  |  |  | activity at 0.1 µM (Rat white adipocytes): 121%
2 | Cc1cnc(NC(=O)c2cc([N+](=O)[O-])ccc2Cl)s1 [Example 4, N-(5-Methylthiazol-2-yl)-(2-chloro-5-nitrophenyl)carboxamide] |  |  |  | activity at 0.1 µM (Rat white adipocytes): 128%
3 | COc1ccc(NC(=O)c2cc([N+](=O)[O-])ccc2Cl)cc1-c1ccccc1 [Example 6, N-(4-Methoxy-3-phenyl)phenyl-(2-chloro-5-nitrophenyl)carboxamide] | 108 | 111 |  | 
4 | O=C(Nc1ccc(-c2ccccn2)cc1)c1cc([N+](=O)[O-])ccc1Cl [Example 8, N-[4-(2-Pyridyl)phenyl]-(2-chloro-5-nitrophenyl)carboxamide] |  |  |  | activity at 0.1 µM (Rat white adipocytes): 114%
5 | Cc1ccc2nc(-c3ccc(NC(=O)c4cc([N+](=O)[O-])ccc4Cl)cc3)sc2c1 [Example 10, N-[4-(6-Methylbenzothiazol-2-yl)phenyl]-(2-chloro-5-nitrophenyl)carboxamide] | 118 |  |  | 
6 | CCCCCc1ccc(NC(=O)c2cc([N+](=O)[O-])ccc2Cl)cc1 [Example 16, N-(4-Pentylphenyl)-(2-chloro-5-nitrophenyl)carboxamide] |  |  |  | activity at 0.1 µM (Rat white adipocytes): 136%
7 | N#Cc1ccc(NC(=O)c2cc([N+](=O)[O-])ccc2Cl)cc1 [Example 20, N-(4-Cyanophenyl)-(2-chloro-5-nitrophenyl)carboxamide] | 126 | 155 | 135 | activity at 0.001 µM (leptin production): 130%
8 | CCOC(=O)c1ccc(NC(=O)c2cc([N+](=O)[O-])ccc2Cl)cc1 [Example 26, N-(4-Ethoxycarbonylphenyl)-(2-chloro-5-nitrophenyl)carboxamide] |  | 115 |  | 
9 | O=C(Nc1cccc(NS(=O)(=O)c2ccccc2)c1)c1cc([N+](=O)[O-])ccc1Cl [Example 30, N-(3-Benzensulfonylaminophenyl)-(2-chloro-5-nitrophenyl)carboxamide] |  |  |  | activity at 0.1 µM (Rat white adipocytes): 139%
10 | O=C(Nc1nc(-c2ccccc2)cs1)c1cc([N+](=O)[O-])ccc1Cl [Example 35, N-(4-Phenylthiazol-2-yl)-(2-chloro-5-nitrophenyl)carboxamide] |  |  |  | activity at 0.1 µM (Rat white adipocytes): 122%
11 | O=C(Nc1nc(-c2cccnc2)cs1)c1cc([N+](=O)[O-])ccc1Cl [Example 37, N-[4-(3-Pyridyl)thiazol-2-yl)-(2-chloro-5-nitrophenyl)carboxamide] |  |  |  | activity at 0.1 µM (Rat white adipocytes): 114%
12 | O=C(Nc1nc(-c2ccccn2)cs1)c1cc([N+](=O)[O-])ccc1Cl [Example 38, N-[4-(2-Pyridyl)thiazol-2-yl)-(2-chloro-5-nitrophenyl)carboxamide] |  |  |  | activity at 0.1 µM (Rat white adipocytes): 137%
13 | Cc1ccccc1-c1csc(NC(=O)c2cc([N+](=O)[O-])ccc2Cl)n1 [Example 39, N-[4-(2-Methylphenyl)thiazol-2-yl]-(2-chloro-5-nitrophenyl)carboxamide] | 119 | 109 |  | 
14 | Cc1cccc(-c2csc(NC(=O)c3cc([N+](=O)[O-])ccc3Cl)n2)c1 [Example 40, N-[4-(3-Methylphenyl)thiazol-2-yl)-(2-chloro-5-nitrophenyl)carboxamide] |  |  |  | activity at 0.1 µM (Rat white adipocytes): 122%
15 | O=C(Nc1cccnc1)c1cc([N+](=O)[O-])ccc1Cl [Example 50, N-(3-Pyridyl)-(2-chloro-5-nitrophenyl)carboxamide] | 109 | 119 | 124 | activity at 0.001 µM (leptin production): 118%
16 | Cc1cc(Cl)nc(NC(=O)c2cc([N+](=O)[O-])ccc2Cl)n1 [Example 78, N-(4-Chloro-6-methylpyrimidin-2-yl)-(2-chloro-5-nitrophenyl)carboxamide] | 114 | 126 |  | 
17 | O=C(Nc1cccc2nsnc12)c1cc([N+](=O)[O-])ccc1Cl [Example 86, N-(2,1,3-Benzothiazol-4-yl)-(2-chloro-5-nitrophenyl)carboxamide] |  | 110 |  | 

Row | Compound | activity at 1 µM (leptin production; 1 μM) [%] | activity at 0.1 µM (leptin production; 100 nm) [%] | activity at 0.01 µM (leptin production; 10 nm) [%] | other results
18 | CC(C)(C)OC(=O)Nc1ccc(-c2ccc(NC(=O)c3cc([N+](=O)[O-])ccc3Cl)cc2)cc1 [Example 87, N-[4-[4-(tert-Butoxycarbonylamino)phenyl]phenyl]-(2-chloro-5-nitrophenyl)carboxamide] | 115 | 113 |  | 
19 | O=C(Nc1ccc(S(=O)(=O)Nc2cccnc2)cc1)c1cc([N+](=O)[O-])ccc1Cl [Example 178] | 117 |  |  | 
20 | CCCCCCNc1ccc(-c2ccc(NC(=O)c3cc([N+](=O)[O-])ccc3Cl)cc2)cc1 [Example 195, N-[4-[4-(N-Hexylamino)phenyl]phenyl]-(2-chloro-5-nitrophenyl)carboxamide] | 120 | 123 | 114 | 
21 | CCCCCCCCNc1ccc(-c2ccc(NC(=O)c3cc([N+](=O)[O-])ccc3Cl)cc2)cc1 [Example 219, N-[4-[4-(N-Octylamino)phenyl]phenyl]-(2-chloro-5-nitrophenyl)carboxamide] | 117 | 119 | 113 | 
22 | CCCCCCCCN(CCCCCC)c1ccc(-c2ccc(NC(=O)c3cc([N+](=O)[O-])ccc3Cl)cc2)cc1 [Example 220, N-[4-[4-(N-Hexyl-N-octylamino)phenyl]phenyl]-(2-chloro-5-nitrophenyl)carboxamide mono-hydrochloride] | 111 |  |  | 
23 | CCCCCCCCN(CCCC)c1ccc(-c2ccc(NC(=O)c3cc([N+](=O)[O-])ccc3Cl)cc2)cc1 [Example 222, N-[4-[4-(N-Butyl-N-octylamino)phenyl]phenyl]-(2-chloro-5-nitrophenyl)carboxamide] | 114 | 109 | 110 | 
24 | CCCCCCCCN(CCCC)c1ccc(-c2ccc(NC(=O)c3cc([N+](=O)[O-])ccc3Cl)cc2)cc1.Cl [Example 223, N-[4-[4-(N-Butyl-N-octylamino)phenyl]phenyl]-(2-chloro-5-nitrophenyl)carboxamide mono-hydrochloride] |  |  |  | Facilitating activity to produce leptin (leptin production; 1 μM): 115.9%; Facilitating activity to produce leptin (leptin production; 10 nm): 109.0%; Facilitating activity to produce leptin (leptin production; 100 nm): 115.2%
25 | CCCCCCCCN(CCC)c1ccc(-c2ccc(NC(=O)c3cc([N+](=O)[O-])ccc3Cl)cc2)cc1 [Example 224, N-[4-[4-(N-Octyl-N-propylamino)phenyl]phenyl]-(2-chloro-5-nitrophenyl)carboxamide] | 113 | 112 | 110 | 
26 | CCCCCCCCN(CC)c1ccc(-c2ccc(NC(=O)c3cc([N+](=O)[O-])ccc3Cl)cc2)cc1 [Example 225, N-[4-[4-(N-Ethyl-N-octylamino)phenyl]phenyl]-(2-chloro-5-nitrophenyl)carboxamide] | 117 | 108 | 107 | 
27 | O=C(Nc1ccc(N2CCN(C(=O)c3ccncc3)CC2)cc1)c1cc([N+](=O)[O-])ccc1Cl [Example 228, N-[4-[4-(Pyridin-4-ylcarbonyl)piperazin-1-yl]phenyl]-(2-chloro-5-nitrophenyl)carboxamide] | 112 | 122 | 119 | 
28 | O=C(Nc1ccc(CCO)cc1)c1cc([N+](=O)[O-])ccc1Cl [Example 230, N-[4-(2-Hydroxyethyl)phenyl]-(2-chloro-5-nitrophenyl)carboxamide] |  |  | 110 | 
29 | O=C(Nc1ccc(-n2ccnc2)cc1)c1cccc(NC(=O)c2cc([N+](=O)[O-])ccc2Cl)c1 [Example 231, N-[[3-[4-(Imidazol-1-yl)phenyl]aminocarbonyl]phenyl]-(2-chloro-5-nitrophenyl)carboxamide] |  | 155 | 128 | 
30 | Nc1nc(-c2cccc(NC(=O)c3cc([N+](=O)[O-])ccc3Cl)c2)cs1 [Example 233, N-[3-(2-Amiothiazol-4-yl)phenyl]-(2-chloro-5-nitrophenyl)carboxamide] |  | 121 | 112 | 
31 | CS(=O)(=O)N(c1ccc(-c2ccc(NC(=O)c3cc([N+](=O)[O-])ccc3Cl)cc2)cc1)S(C)(=O)=O [Example 235, N-[4-[4-(N,N-Dimethanesulfonylamino)phenyl]phenyl]-(2-chloro-5-nitrophenyl)carboxamide] | 143 | 121 | 111 | 
32 | O=C(Nc1ccc(-c2ccc(NC(=S)Nc3ccncc3)cc2)cc1)c1cc([N+](=O)[O-])ccc1Cl [Example 258, N-[4-[4-[(Pyridin-4-yl)aminothiocarbonylamino]phenyl]phenyl]-(2-chloro-5-nitrophenyl)carboxamide] | 112 | 114 | 120 | 
33 | O=C(Nc1ccc(NC(=S)Nc2ccncc2)cc1)c1cc([N+](=O)[O-])ccc1Cl [Example 259, N-[4-[(Pyridin-4-yl)aminothiocarbonylamino]phenyl]-(2-chloro-5-nitrophenyl)carboxamide] |  | 110 | 111 | 
34 | NCCc1ccc(NC(=O)c2cc([N+](=O)[O-])ccc2Cl)cc1 [Example 267, N-[4-(2-Aminoethyl)phenyl]-(2-chloro-5-nitrophenyl)carboxamide] |  | 110 | 118 | 

Reference: US20030134859A1 (SANKYO COMPANY, LIMITED, priority 2000, published 2003)
